# Measurements reported in PMC10401651, “Characterization of Uranyl (UO2^2+) Ion Binding to Amyloid Beta (Aβ) Peptides: Effects on Aβ Structure and Aggregation” (ACS Chemical Neuroscience, 2023).
# Where “and” joins values, the source holds several entries; their conditions need not be identical. Identical values can stand only once. Like-named read-outs stand apart in the source and are kept apart here.
# Tests used:
# [1] = biological target: T1, Aβ40 peptide (Homo sapiens, UniProt P05067); assay: Binding affinity via Tyr10 fluorescence quenching, Aβ40; conditions: for Kd: 20 μM Aβ40
# T1 construct: namely, the Aβ40 peptide and the Aβ40 (H6A, H13A, and H14A) triple-mutant; purchased AlexoTech AB (Umeå, Sweden); host or cells: recombinant
# Procedure: (§1) Fluorescence measurements were conducted on a Jobin Yvon Horiba Fluorolog 3 fluorescence spectrophotometer (Longjumeau, France) using a quartz cuvette with a 4 mm path length. […] Apparent dissociation constants (KD^App) were determined by fitting the plots to eq 2 [drawing 2] 2 where I0 is the initial fluorescence intensity with no added UO2^2+ ions, I∞ is the steady-state intensity at the end of the titration, [Ab] is the protein concentration, and [U] is the concentration of added UO2^2+ ions.[121],[160]
# [2] = biological target: T2, Aβ42 oligomers (Homo sapiens, UniProt P05067); assay: FTIR spectroscopy of SDS-stabilized Aβ42 oligomer structure
# T2 construct: Synthetic lyophilized wt Aβ (1–42) peptides, abbreviated as Aβ42; purchased JPT Peptide Technologies (Germany); host or cells: synthetic peptide
# Procedure: The secondary structures of Aβ42 oligomers formed with different SDS and uranyl concentrations were studied with FTIR spectroscopy, where the amide I region (1700–1600 cm^–1) is very sensitive to changes in the protein backbone conformation, including differences in β-sheet structures.[133]−[135] […] This split pattern of IR bands in the amide I region is typical for anti-parallel β-sheet structures.[136]−[138]
# Treatment of Aβ42 peptides with low concentrations (≤7 mM) of SDS, i.e., below the critical micelle concentration for SDS, which is 8.2 mM in water at 25 °C,[152] leads to the formation of stable and homogeneous Aβ42 oligomers of certain sizes and conformations.[131],[132],[153] […] The absorbance for each fraction at 280 nm was measured with a NanoDrop instrument (Eppendorf, Germany), and peptide concentrations were determined using a molar extinction coefficient of 1280 M^–1 cm^–1 for the single Tyr in Aβ42.[155] […]
# FTIR spectra of the SDS-stabilized Aβ42 oligomers (prepared as described in Section 5.2) were recorded in transmission mode on a Tensor 37 FTIR spectrometer (Bruker Optics, Germany) equipped with a sample shutter and a liquid nitrogen-cooled MCT detector. […] FTIR spectra were recorded at room temperature in the 1900–800 cm^–1 range, with 300 scans for both background and sample spectra, using a 6 mm aperture and at a resolution of 2 cm^–1. […]
# [3] = biological target: T3, Aβ40 (H6A, H13A, and H14A) triple-mutant, Aβ40 (NoHis) (Homo sapiens, UniProt P05067, H677A/H684A/H685A); assay: Binding affinity via Tyr10 fluorescence quenching, Aβ40 (NoHis) mutant; conditions: 20 μM Aβ40 (NoHis)
# T3 construct: the Aβ40 (H6A, H13A, and H14A) triple-mutant; purchased AlexoTech AB (Umeå, Sweden); host or cells: recombinant
# From the text: Synthetic lyophilized wt Aβ (1–42) peptides, abbreviated as Aβ42, with the primary sequence DAEFR5HDSGY10EVHHQ15KLVFF20AEDVG25SNKGA30IIGLM35VGGVV40IA, were purchased from JPT Peptide Technologies (Germany). Two recombinant Aβ variants were purchased as lyophilized powder from AlexoTech AB (Umeå, Sweden), namely, the Aβ40 peptide and the Aβ40 (H6A, H13A, and H14A) triple-mutant, which in the following is referred to as the Aβ40 (NoHis) mutant. The Aβ40 peptide was also purchased uniformly single-labeled with ^15N isotopes. All Aβ40 peptide variants were stored at −80 °C until use. Before measurements, they were dissolved in 10 mM NaOH and then sonicated in an ice bath for 5 min to avoid pre-formed aggregates. The samples were then diluted in either sodium phosphate buffer at pH 7.3 or in MES buffer at pH 7.3 or 5.1. The peptide concentrations were initially estimated from the weight of the dry powder and then more accurately determined with a NanoDrop spectrophotometer.
# as §1, with “length. The fluorescence emission intensity of samples containing 20 μM Aβ peptides in 20 mM MES buffer, at either pH 7.3 or pH 5.5 and without or with 50 mM SDS detergent present, was measured at 305 nm (excitation wavelength 276 nm) at 20 °C.” for “length.”
# T1 sequence (P05067 672-711 limits assumed): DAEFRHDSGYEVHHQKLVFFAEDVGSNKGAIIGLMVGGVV
# T3 sequence (P05067 672-711 H677A/H684A/H685A): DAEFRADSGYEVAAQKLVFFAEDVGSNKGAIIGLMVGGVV
# T2 sequence (P05067 672-713 limits assumed): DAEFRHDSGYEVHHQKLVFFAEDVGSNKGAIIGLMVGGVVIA
compound,measurement,setting,value
"CC(=O)[O-].CC(=O)[O-].[O]=[U+2]=[O] [uranyl ions, uranyl acetate]",affinities for binding to Aβ peptides,[1]; general statement of the abstract,micromolar range
same,Kd,"[1]; pH 5.1 + 50 mM SDS, read-out: KD^App, single replicates",21.8 µM and 21.7 µM and 27.4 µM
same,Kd,"[1]; pH 5.1 + 50 mM SDS, three replicates, read-out: KD^App, average",23.6 ± 3 µM
same,Kd,"[1]; pH 5.1, 20 mM MES, read-out: KD^App, single replicates",14 µM and 13.7 µM and 21.3 µM
same,Kd,"[1]; pH 5.1, 20 mM MES, three replicates, read-out: KD^App, average",16.3 ± 4 µM
same,Kd,"[1]; pH 7.3 + 50 mM SDS, not to be trusted, read-out: KD^App, single replicates",206 µM and 252 µM and 251 µM
same,Kd,"[1]; pH 7.3 + 50 mM SDS, three replicates, not to be trusted, read-out: KD^App, average",236 ± 22 µM
same,Kd,"[1]; pH 7.3, 20 mM MES, data deviate from single-site model, not to be trusted, read-out: KD^App, single replicates",130 µM and 141 µM and 148 µM
same,Kd,"[1]; pH 7.3, 20 mM MES, three replicates, not to be trusted, read-out: KD^App, average",140 ± 8 µM
same,"β-sheet main band position (amide I, FTIR)","[2]; AβO0.05%SDS oligomers in PBS, 1 mM uranyl acetate (1628.3 without)",1627.8 cm^–1
same,"β-sheet main band position (amide I, FTIR)","[2]; AβO0.2%SDS oligomers, 0.01, 0.1, and 1 mM uranyl acetate (1629.9 without)",1629.8 cm^–1
same,Kd,"[3]; pH 7.3 + 50 mM SDS, read-out: KD^App, single replicates",119 µM and 124 µM and 116 µM
same,Kd,"[3]; pH 7.3 + 50 mM SDS, three replicates, read-out: KD^App, average",120 ± 4 µM
same,Kd,"[3]; pH 7.3, 20 mM MES, read-out: KD^App, single replicates",62 µM and 86 µM and 79 µM
same,Kd,"[3]; pH 7.3, 20 mM MES, three replicates, read-out: KD^App, average",76 ± 11 µM
